Like-named read-outs stand apart in the source and are kept apart here.
How the values were obtained:
[1] = system: HIV-1 L100I/K103N double mutant; design: method as in Fernández-Romero unpublished; details: ref Fernández-Romero unpublished; read-out: IC50 against L100I/K103N double mutant; cited from earlier work
[2] = system: HIV-1 wild type; design: method as in Fernández-Romero unpublished; details: ref Fernández-Romero unpublished; read-out: IC50 against wild type; cited from earlier work
[3] = system: HIV-1 Y181C mutant; design: method as in Fernández-Romero unpublished; details: ref Fernández-Romero unpublished; read-out: IC50 against Y181C mutant; cited from earlier work
[4] = Vaginal pH and cytokines/chemokines in vaginal fluids after repeated gel; format: in vivo, Rhesus macaques (Macaca mulatta)
Protocol: PBMCs were isolated from EDTA blood using Ficoll-Hypaque density gradient centrifugation (Amersham Pharmacia Biotech, Uppsala, Sweden) as already described. RPMI 1640 (Invitrogen/GIBCO, Carlsbad, CA, USA) culture medium containing 2 mM L-glutamine (Invitrogen/GIBCO) 10 mM HEPES (N-2-hydroxyethylpiperazine-N'-2-ethanesulfonic acid) (Invitrogen/GIBCO), 50 µM 2-mercaptoethanol (Sigma) penicillin (100 U/ml) and streptomycin (100 µg/ml) (Invitrogen/GIBCO) and 1% heparinized human plasma (Innovative Research, Southfield, MI) was used for final re-suspension of PBMCs. Medium with 10% HI-FBS (heat inactivated fetal bovine serum) (Invitrogen/GIBCO) instead of 1% human plasma was used for the PBMC-174xCEM co-cultures. DNA was isolated from lymph nodes as described with the DNeasy® Blood & Tissue Kit (Qiagen Sciences, MD USA). […] Vaginal pH was determined by inserting pH-indicator strip (EMO Chemical Inc., Gibbstown, NJ) into the vaginal vault for 5 minutes to saturate the pH paper with vaginal fluid.
SIV-specific IFN-γ T cell responses were monitored by ELISPOT using AT-2 SIV (versus the no virus microvesicle controls) as the stimuli and SIV-specific antibodies by ELISA [36]. […] Cell-free vaginal fluids were analyzed for chemokine and cytokine expression using the monkey-reactive Beadlyte human 14-plex Detection System according to the manufacturer's instructions (Invitrogen). […]

[5] = system: R5 and X4 viruses; design: method as in PMID 16924181, PMID 18776937, PMID 7545297; details: potentially virucidal; cited from earlier work
[6] = rat, in vivo; cited from earlier work
[7] = system: R5 and X4 viruses; design: method as in PMID 16924181, PMID 18776937, PMID 7545297; details: read-out: antiviral IC50; cited from earlier work
[8] = system: HIV-1; details: in vitro; ref Fernández-Romero unpublished; cited from earlier work
[9] = design: method as in PMID 18086845; details: 8 h after daily treatment for 7 days with 273 µM TMC120; cited from earlier work

Structure (SMILES): O=C1Nc2ccc(Cl)cc2[C@@](C#CC2CC2)(C(F)(F)F)O1 [Efavirenz, reference compound]
- IC50 [1]: > 10000 nM
- IC50 [2]: 0.6 nM

Structure (SMILES): CCC(=O)c1ccc(F)c([C@@H]2C[C@@H]2NC(=O)Nc2ccc(C#N)cn2)c1O [MIV-150]
- IC50 [3]: 0.2 nM
- impact on vaginal pH ([4]; before, during and 8 or 24 h after 2 week gel administration): no impact
- impact on CXCL8 and CCL2 levels in vaginal fluids ([4]; relative to carrageenan, 2 week daily gel administration): no further impact
- IC50 [5]: 400 nM
- time to becoming undetectable in plasma (short plasma half-life) [6]: ≤ 24 h
- IC50 [7]: < 1 nM
- memory effect: time exposed cells remain resistant to infection [8]: up to 5 d
- IC50 [1]: 900 nM
- IC50 [2]: 0.7 nM

Structure (SMILES): Cc1cc(C)c(Nc2ccnc(Nc3ccc(C#N)cc3)n2)c(C)c1 [TMC120]
- level of TMC120 associated with the cervical tissues [9]: 3 to 80 pg/mg
